Structures can show the parent of a compound that is named as a salt. Values belong to the compound of their own block, whether it stands above or below them.
Tests used:
[1] = test system: myeloid blast crisis and lymphoid blast crisis; details: cited from earlier work
[2] = test system: CML; details: CML patients; cited from earlier work
[3] = oral; cited from earlier work
[4] = Stability of imatinib in the LC-MS/MS bioanalytical method validation

Compound: Cc1ccc(NC(=O)c2ccc(CN3CCN(C)CC3)cc2)cc1Nc1nccc(-c2cccnc2)n1 [imatinib mesylate]
Response rate, lymphoid blast crisis ([1]; oral 300-1,000 mg/day, 14 out of 20 patients): 70% | Response rate, myeloid blast crisis ([1]; oral 300-1,000 mg/day, 21 out of 38 patients): 55% | Complete hematologic response, myeloid blast crisis ([1]; oral 300-1,000 mg/day): 19% | Complete hematologic responses, lymphoid blast crisis ([1]; oral 300-1,000 mg/day): 20%

Compound: interferon-α [IFN-α]
Cytogenetic remission [2]: 6%-20%

Inter-patient CV, lnAUC0-24 (ln-transformed AUC0-24): 25.2% | Intra-patient CV, lnAUC0-24 (ln-transformed AUC0-24, test and reference together): 12.3% | Inter-patient CV, lnCmax (ln-transformed Cmax): 20.4% | Intra-patient CV, lnCmax (ln-transformed Cmax, test and reference together): 13.6% | In-injector stability, % change, HQC ([4]; 2-8°C, ~77 hr, high quality control): –5.6% | In-injector stability, % change, LQC ([4]; 2-8°C, ~77 hr, low quality control): 4.6% | Freeze thaw stability, % change, HQC ([4]; 3 cycles, high quality control): –6.1% | Freeze thaw stability, % change, LQC ([4]; 3 cycles, low quality control): 2.2% | Long-term stability, accuracy, HQC ([4]; 70 days, high quality control): 97.4% | Long-term stability, accuracy, LQC ([4]; 70 days, low quality control): 95.7% | Long-term stability, accuracy, MQC ([4]; 70 days, medium quality control): 101.5% | Bench top stability, % change, HQC ([4]; room temperature, ~7 hr, high quality control): –7.2% | Bench top stability, % change, LQC ([4]; room temperature, ~7 hr, low quality control): 10.2%
Compound: Cc1ccc(NC(=O)c2ccc(CN3CCN(C)CC3)cc2)cc1Nc1nccc(-c2cccnc2)n1 [imatinib]
Duration of remission from the commencement of therapy ([1]; responding patients continued on imatinib treatment): 101 to 349 days | Time to attain peak plasma concentration (Cmax) [3]: 2 to 4 h
